# Values quoted from earlier work, collected in US20210161190A1, “CORE BODY TEMPERATURE REDUCING AGENT, FOOD PRODUCT, AND SLEEP IMPROVING AGENT” (JAPAN TOBACCO INC., priority 2018, published 2021).
# Tests used:
# [1] = intake of glycine
# [2] = test system: mouse models of sleep disorder caused by imposed stress
# [3] = stress-imposed mouse models, continuous administration 350 to 3000 mg/kg of body weight per day
Structure (SMILES),core body temperature after intake [1],percentage of Non-REM sleep [1],circadian variation in core body temperature ([2]; mice without imposed stress),"REM sleep [2, 3]","non-REM sleep [2, 3]"
NCC(=O)O [glycine],reduces core body temperature,improves the percentage of Non-REM sleep,–,–,–
O=C[C@H](O)[C@H](O)[C@H](O)CO [D-ribose],–,–,hardly affected,suppressed reduction in REM sleep,promoted increases in non-REM sleep
